Consider 25 compounds from ChEMBL document CHEMBL1143114, “Preparation and affinity profile of novel nicotinic ligands” (Bioorg Med Chem Lett, 2008).

Activity calls are given as the source filed them. The calls are words filed in the database; no cut-off is given here.

For assay [1], the target named is Neuronal acetylcholine receptor subunit alpha-7 (Rattus norvegicus, UniProt Q05941). Briefly: Displacement of [3H]alpha-bungaro-toxine from nicotinic alpha-7 receptor in rat brain. In kind it is tissue-based.
Chain of Neuronal acetylcholine receptor subunit alpha-7 (Q05941 whole entry): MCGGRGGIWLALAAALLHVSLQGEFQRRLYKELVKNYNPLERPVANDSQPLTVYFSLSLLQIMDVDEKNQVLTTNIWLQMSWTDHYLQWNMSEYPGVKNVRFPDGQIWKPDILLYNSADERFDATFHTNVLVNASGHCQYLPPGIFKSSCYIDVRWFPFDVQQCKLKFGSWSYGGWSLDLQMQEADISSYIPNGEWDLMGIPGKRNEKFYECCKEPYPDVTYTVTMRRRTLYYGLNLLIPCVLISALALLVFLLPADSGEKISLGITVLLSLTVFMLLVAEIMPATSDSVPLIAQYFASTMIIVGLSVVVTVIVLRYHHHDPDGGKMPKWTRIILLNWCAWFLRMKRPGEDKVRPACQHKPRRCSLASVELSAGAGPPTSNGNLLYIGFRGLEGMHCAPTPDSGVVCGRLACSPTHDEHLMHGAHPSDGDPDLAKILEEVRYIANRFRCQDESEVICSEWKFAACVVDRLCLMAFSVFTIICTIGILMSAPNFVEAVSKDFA
Assay [2] has as its target Neuronal acetylcholine receptor; alpha4/beta2 (Rattus norvegicus, UniProt P09483+P12390). Description: Displacement of [3H]cystisine from nicotinic alpha-4-beta-2 receptor in rat brain. Format: tissue-based.
The target in assay [3] is Muscarinic acetylcholine receptor. Description: Displacement of [3H]oxotremorine from muscarinic receptor in rat brain. In kind it is tissue-based.
The species entered for assay [4] is Rattus norvegicus. Description: Increase in cortical acetyl choline levels in rat by microdialysis. In kind it is functional, organism-based.
For assay [5], the species on record is Rattus norvegicus. Description: Effect on memory in Wistar rat by social recognition test. In kind it is functional, organism-based.

Chain of Neuronal acetylcholine receptor; alpha4/beta2 (P09483 whole entry): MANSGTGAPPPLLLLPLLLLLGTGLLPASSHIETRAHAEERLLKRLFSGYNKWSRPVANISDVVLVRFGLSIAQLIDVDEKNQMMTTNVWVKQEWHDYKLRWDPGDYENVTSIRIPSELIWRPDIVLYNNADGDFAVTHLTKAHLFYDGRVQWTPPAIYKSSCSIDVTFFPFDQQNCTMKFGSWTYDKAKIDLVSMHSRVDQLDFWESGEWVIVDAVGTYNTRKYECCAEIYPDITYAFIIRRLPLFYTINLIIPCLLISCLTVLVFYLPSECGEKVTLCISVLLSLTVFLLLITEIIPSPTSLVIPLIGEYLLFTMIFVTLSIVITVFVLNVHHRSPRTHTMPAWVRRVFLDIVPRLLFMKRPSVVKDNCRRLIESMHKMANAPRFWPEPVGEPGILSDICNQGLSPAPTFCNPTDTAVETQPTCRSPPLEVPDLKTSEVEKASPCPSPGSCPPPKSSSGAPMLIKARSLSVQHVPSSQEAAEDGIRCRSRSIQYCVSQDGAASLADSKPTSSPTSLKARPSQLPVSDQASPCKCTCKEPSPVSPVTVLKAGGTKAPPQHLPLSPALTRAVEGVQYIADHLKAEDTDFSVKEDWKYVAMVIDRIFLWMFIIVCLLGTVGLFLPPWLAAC
Chain of Neuronal acetylcholine receptor; alpha4/beta2 (P12390 whole entry): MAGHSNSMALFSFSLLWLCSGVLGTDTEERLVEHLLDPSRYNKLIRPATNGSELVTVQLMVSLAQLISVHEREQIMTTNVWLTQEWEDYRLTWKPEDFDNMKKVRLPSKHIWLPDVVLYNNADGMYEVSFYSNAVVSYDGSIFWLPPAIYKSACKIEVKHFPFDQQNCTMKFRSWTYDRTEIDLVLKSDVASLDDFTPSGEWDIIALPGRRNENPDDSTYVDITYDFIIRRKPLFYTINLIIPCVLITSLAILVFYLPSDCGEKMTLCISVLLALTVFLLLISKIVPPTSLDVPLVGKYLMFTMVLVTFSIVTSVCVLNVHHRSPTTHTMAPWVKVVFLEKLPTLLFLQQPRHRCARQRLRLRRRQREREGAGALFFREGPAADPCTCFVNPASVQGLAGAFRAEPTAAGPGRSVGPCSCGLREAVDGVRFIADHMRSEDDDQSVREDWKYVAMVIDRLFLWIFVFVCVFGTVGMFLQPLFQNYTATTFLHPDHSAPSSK

In the case of `C#Cc1cncc(OCC2(NC)CC2)c1.Cl`, the Ki in assay [1] was over 10000 nM; in assay [2], 6.56 nM; in assay [3], over 10000 nM.

For the compound `NC1(COc2ccc(Cl)nc2)CC1`, in assay [2], the Ki amounted to 98 nM.

Consider `CNC1(/C=C/c2cccnc2)CC1.O=C(O)/C=C/C(=O)O`, for which the figures for the Ki in assay [1], in assay [2] and in assay [3] were 3460 nM, 1160 nM and over 10000 nM, respectively.

On to `CN(C)C1(COc2cccnc2)CC1.Cl`, for which the Ki in assay [1] is over 10000 nM; in assay [2] it was 95 nM; in assay [3], over 10000 nM.

In the case of `CNC1(/C=C/COc2cccnc2)CC1.Cl`, the Ki was over 10000 nM in assay [1], 1100 nM in assay [2] and over 10000 nM in assay [3].

Take `C=Cc1cncc(OCC2(NC)CC2)c1.Cl`: the Ki in assay [1] is over 10000 nM; in assay [2] it was 70.1 nM; in assay [3] it was over 10000 nM.

`CNC1(COc2ccc(C)nc2)CC1.Cl`: the figures for the Ki in assay [1], in assay [2] and in assay [3] were over 10000 nM, 40 nM and over 10000 nM, respectively.

For `CN(C)C1(COc2cncc(Br)c2)CC1`, the Ki in assay [2] is 273 nM.

`Cc1ccc(OCC2(N)CC2)cn1` displayed a Ki in assay [2] of 266 nM.

On to `CNC1(CCCOc2cccnc2)CC1.O=C(O)/C=C/C(=O)O`, for which the inhibition constant Ki was over 10000 nM in assay [1], 2460 nM in assay [2] and over 10000 nM in assay [3].

Take `CN(C)C1(COc2ccc(Cl)nc2)CC1`: the Ki in assay [2] was 304 nM.

As to `CNC1(COc2ccc(Cl)nc2)CC1.Cl`, the Ki in assay [1] is over 10000 nM; in assay [2] it was 13 nM; in assay [3], over 10000 nM.

As to `CNC1(CCc2cccnc2)CC1.Cl`, the Ki in assay [1] is 1910 nM; in assay [2] it was 251 nM; in assay [3] it was over 10000 nM.

Consider `CNC1(COc2cncc(Br)c2)CC1.Cl`, for which the Ki in assay [1] was over 10000 nM; in assay [2] it was 1.07 nM; in assay [3], over 10000 nM.

For `CCNC1(COc2cccnc2)CC1`, the Ki was over 10000 nM in assay [1], 1010 nM in assay [2] and over 10000 nM in assay [3].

The compound `CN(C)C1(COc2ccc(Br)nc2)CC1` gave a Ki in assay [2] of 394 nM.

With `CNC1(COc2cccnc2)CC1.Cl`, in assay [4], the Activity result is “Dose-dependent effect”. Moreover, the Ki in assay [1] is over 10000 nM; in assay [2], 3 nM; in assay [3] it was over 10000 nM. In addition, the result in assay [5] was Active.

For the compound `CNC1(COc2ccc(Br)nc2)CC1.Cl`, the Ki is over 10000 nM in assay [1], 38.8 nM in assay [2] and over 10000 nM in assay [3].

Regarding `Cl.NC1(COc2cccnc2)CC1`, the figures for the Ki in assay [1], in assay [2] and in assay [3] were over 10000 nM, 34 nM and over 10000 nM, respectively.

For the compound `CNC1(/C=C\COc2cccnc2)CC1.Cl`, the figures for the Ki in assay [1], in assay [2] and in assay [3] were over 10000 nM, 2280 nM and over 10000 nM, respectively.

In the case of `CNC1(CCOc2cccnc2)CC1.O=C(O)/C=C/C(=O)O`, the Ki in assay [1] was over 10000 nM; in assay [2], 109 nM; in assay [3], over 10000 nM.

With `c1cncc(OCC2(N3CCCC3)CC2)c1`, the results for the Ki in assay [1], in assay [2] and in assay [3] were over 10000 nM, 1610 nM and over 10000 nM, respectively.

In the case of `CNC1(COc2cnc(Cl)c(Br)c2)CC1.Cl`, the Ki in assay [1] was over 10000 nM; in assay [2], 5.37 nM; in assay [3] it was over 10000 nM.

For `CN(C)C1(COc2cnc(Cl)c(Br)c2)CC1`, in assay [2], the affinity corresponds to a Ki of 110 nM.

`Cc1ccc(OCC2(N(C)C)CC2)cn1` displayed a Ki in assay [2] of 1090 nM.
